24 compounds from patent publication US8735391B2, “Synthesis of functionalized octahydro-isoquinolin-1-one-8-carboxamides, octahydro-isoquinolin-1-one-8-carboxylic esters and analogs, and therapeutic methods” (University of Kansas, priority 2008, dated 2014) can be followed below.

Where two headings read alike, the source gives them in different places.

The target in experiment [1] is T1, KOR (Homo sapiens, UniProt P41145). The experiment can be described thus: Opioid secondary binding, KOR (Tables 4, 5, 8, 9).
For experiment [2], the target named is MOR (Homo sapiens, UniProt P35372). Kind of experiment: Opioid secondary binding, MOR (Tables 4, 5, 8).
The target in experiment [3] is T1, KOR. The experiment can be described thus: [35S]GTPγS binding functional agonist assay on membranes of CHO cells expressing hKOR (reference agonist U69593). The experiment is classed as biochemical. Further details: expressed in transfected cells; host or cells: CHO cells, stably transfected; crude membrane fractions. As to conditions: for Emax: read-out: Emax values relative to U69593; for KOR agonist (average percent efficacy relative to cognate agonist): test compound at 10 micromolar, N=4, reference agonist = 100%, CHO-cell line expressing hKOR. The protocol:
The compounds prepared herein were tested for bioactivity with opioid receptors. Agonist assays: Data represent the percent efficacy (relative to cognate agonist) of the test compound at 10 micromolar. The response to a saturating concentration of a reference antagonist or to vehicle (usually none or negligible) is set to 0%. […] The response inhibition elicited by a saturating concentration of reference antagonist is set to 100%; the response inhibition (usually none or negligible) elicited by vehicle is set to 0%. The following tables provide data related to the bioactivity for opioid receptors of the compounds described herein.
Table 6 provides data that represent the average percent efficacy (N=4; relative to cognate agonist) of the test compound at 10 micromolar concentration. The response to a saturating concentration of cognate/reference agonist is set to 100%; the response to a saturating concentration of a reference antagonist or to vehicle (usually none or negligible) is set to 0%. All functional assays are performed on stably transfected CHO-cell lines expressing hKOR, hMOR or hDOR.
(§1) Serial dilutions of the test and reference compounds are made in binding buffer at 2× assay concentration (final assay concentrations ranging from 0.1 nM to 10 μM). Crude membrane fractions (1.8 to 3.5 cm2/well) (prepared from 10-cm plates by harvesting PBS-rinsed monolayers, resuspending and lysing in chilled, hypotonic 50 mM Tris-HCl, pH 7.4, centrifuging at 20,000×g, decanting the supernatant and storing at −80 degrees centigrade; typically, one 10-cm plate provides sufficient material for 24 wells) are resuspended in 1.2 ml of assay buffer containing 20 μM GDP, wheat germ agglutinin (WGA)-coated scintillation proximity beads (2.4 mg), and [35S]GTPγS (300 pM final). The suspension is then added (50 μl/well) to 50 μl of the 2× test or reference compounds (each concentration assayed in triplicate) in flexible transparent PET 96-well plates. The reaction plate is sealed and incubated for 90 min at room temperature, then centrifuged for 5 min at 216×g, and finally loaded into a Wallac MicroBeta TriLux counter. Non-specific [35S]GTPγS binding is assessed at the maximum concentration of reference agonist in the presence of 10 μM antagonist. The background signal is measured at 10 μM reference agonist in the presence of 10 μM unlabeled GTPγS. Raw data (dpm) representing total [35S]GTPγS binding (i.e., specific+non-specific binding) are calculated as a percentage of the maximum response by the reference agonist (in this case U69593).
as §1, with “GTPγS.” for “GTPγS. Raw data (dpm) representing total [35S]GTPγS binding (i.e., specific+non-specific binding) are calculated as a percentage of the maximum response by the reference agonist (in this case U69593).”
(In general: GTPγS resists hydrolysis and so accumulates on activated G proteins.)

The target in experiment [4] is DOR (Homo sapiens, UniProt P41143). Kind of experiment: Opioid secondary binding, DOR (Table 4). As to conditions: Opioid secondary binding activity for Formula 10 analogs.
Where [5] appears, read: Opioid secondary binding activity for Formula 10 analogs, read-out: KOR, Ki.
Setting [6] is: Opioid secondary binding activity for Formula 10 analogs, read-out: MOR, Ki.

Sequence of MOR (P35372 whole entry): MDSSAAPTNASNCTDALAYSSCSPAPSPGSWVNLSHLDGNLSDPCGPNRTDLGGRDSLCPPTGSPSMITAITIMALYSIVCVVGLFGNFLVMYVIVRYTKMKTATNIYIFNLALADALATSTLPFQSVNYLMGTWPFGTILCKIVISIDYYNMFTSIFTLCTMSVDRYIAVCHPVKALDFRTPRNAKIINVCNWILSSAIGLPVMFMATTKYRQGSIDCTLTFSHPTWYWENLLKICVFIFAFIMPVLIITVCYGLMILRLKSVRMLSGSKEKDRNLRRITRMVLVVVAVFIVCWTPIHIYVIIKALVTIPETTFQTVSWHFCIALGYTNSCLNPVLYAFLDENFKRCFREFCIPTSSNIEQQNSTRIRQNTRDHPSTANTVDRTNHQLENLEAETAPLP
Sequence of DOR (P41143 whole entry): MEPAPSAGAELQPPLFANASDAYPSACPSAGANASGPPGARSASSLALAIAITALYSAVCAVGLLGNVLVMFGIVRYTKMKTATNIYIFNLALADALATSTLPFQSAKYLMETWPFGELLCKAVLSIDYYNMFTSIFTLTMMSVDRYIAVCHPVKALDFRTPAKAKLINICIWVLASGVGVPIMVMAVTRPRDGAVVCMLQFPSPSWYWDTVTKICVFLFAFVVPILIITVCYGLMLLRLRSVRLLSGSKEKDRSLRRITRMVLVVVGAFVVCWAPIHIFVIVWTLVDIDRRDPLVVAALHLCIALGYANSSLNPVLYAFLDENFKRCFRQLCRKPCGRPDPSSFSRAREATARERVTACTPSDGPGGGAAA
T1 sequence (P41145 whole entry): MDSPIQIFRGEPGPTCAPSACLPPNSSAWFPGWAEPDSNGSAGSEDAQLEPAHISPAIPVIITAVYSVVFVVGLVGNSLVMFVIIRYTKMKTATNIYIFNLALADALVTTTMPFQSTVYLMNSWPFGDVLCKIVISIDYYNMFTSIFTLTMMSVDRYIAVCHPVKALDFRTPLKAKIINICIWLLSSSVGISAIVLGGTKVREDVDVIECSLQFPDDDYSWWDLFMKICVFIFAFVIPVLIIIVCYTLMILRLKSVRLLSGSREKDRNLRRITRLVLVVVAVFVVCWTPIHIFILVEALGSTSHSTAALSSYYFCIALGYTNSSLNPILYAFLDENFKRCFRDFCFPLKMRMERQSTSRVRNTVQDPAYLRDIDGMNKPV

`O=C(Nc1ccc(F)c(F)c1)[C@@H]1CC=C[C@@H]2CCN(Cc3ccc(Cl)c(Cl)c3)C(=O)[C@@H]21` (racemic) [compound 5085]: the results for the Ki in experiment [1] (setting [5]) and in experiment [2] (setting [6]) were 2960 nM and 4660 nM, respectively.
Regarding `O=C(Nc1ccc(Cl)c(C(F)(F)F)c1)[C@@H]1CC=C[C@@H]2CCN(Cc3ccccc3)C(=O)[C@@H]21` (racemic) [compound 8620], the Emax in experiment [3] stood at 67%. Also, the figures for the Ki in experiment [1] and in experiment [2] (setting [6]) were 5.3 nM and 3550 nM, respectively.
For `O=C1[C@H]2[C@H](C=CC[C@H]2C(=O)N2CCN(c3ccccc3)CC2)CCN1Cc1ccccc1` (racemic) [compound 8912], the “KOR agonist (average percent efficacy relative to cognate agonist)” value in experiment [3] was found to be 8%. The Ki in experiment [1] (setting [5]) stood at 4800 nM; in experiment [2] (setting [6]), 2400 nM; in experiment [4], 3850 nM.
On the same counts, the results for `COc1ccc(CN2CC[C@H]3C=CC[C@@H](C(=O)N4CCN(c5ccccc5)CC4)[C@H]3C2=O)cc1OC` (racemic) [compound 8915] are 6.7%, 8900 nM, 5540 nM and 4690 nM.
As for `O=C(NCCc1ccccc1)[C@@H]1CC=C[C@@H]2CCN(Cc3ccccc3)C(=O)[C@@H]21` (racemic) [compound 8916], the “KOR agonist (average percent efficacy relative to cognate agonist)” value in experiment [3] amounted to 110.6%. The values for the Ki in experiment [1] (setting [5]) and in experiment [2] (setting [6]) were 561 nM and 4600 nM, respectively.
On the same counts, the results for `COc1ccc(CNC(=O)[C@@H]2CC=C[C@@H]3CCN(Cc4ccc(Cl)c(Cl)c4)C(=O)[C@@H]32)cc1` (racemic) [compound 8928] are 17.7%, 964 nM and 7400 nM.
Regarding `O=C(Nc1ccccc1)[C@@H]1CC=C[C@@H]2CCN(Cc3ccccc3)C(=O)[C@@H]21` (racemic) [compound 8937, 2-Benzyl-N-phenyl-1-oxo-1,2,3,4,4a,7,8,8a-octahydroisoquinoline-8-carboxamide], the “KOR agonist (average percent efficacy relative to cognate agonist)” value in experiment [3] is recorded as 136.6%. For the same compound, the results for the Ki in experiment [1] (setting [5]), in experiment [2] (setting [6]) and in experiment [4] were 146 nM, 2570 nM and 850 nM, respectively.
As to `O=C(Nc1ccccc1)[C@@H]1CC=C[C@@H]2CCN(Cc3ccc(Cl)c(Cl)c3)C(=O)[C@@H]21` (racemic) [compound 8941], in experiment [3], the “KOR agonist (average percent efficacy relative to cognate agonist)” value is listed as 79%. Besides, the values for the Ki in experiment [1] (setting [5]), in experiment [2] (setting [6]) and in experiment [4] were 259 nM, 2700 nM and 1110 nM, respectively.
`COc1ccc(CN2CC[C@H]3C=CC[C@@H](C(=O)Nc4ccccc4)[C@H]3C2=O)cc1OC` (racemic) [compound 8942]: the “KOR agonist (average percent efficacy relative to cognate agonist)” value in experiment [3] turned out to be 5.4%. Moreover, the values for the Ki in experiment [1] (setting [5]), in experiment [2] (setting [6]) and in experiment [4] were 3060 nM, 3520 nM and 4610 nM, respectively.
Consider `COc1ccc(NC(=O)[C@@H]2CC=C[C@@H]3CCN(Cc4ccc(Cl)c(Cl)c4)C(=O)[C@@H]32)cc1` (racemic) [compound 8947], for which the “KOR agonist (average percent efficacy relative to cognate agonist)” value in experiment [3] is given as 17.3%. For the same compound, the results for the Ki in experiment [1] (setting [5]) and in experiment [2] (setting [6]) were 2560 nM and 3490 nM, respectively.
On to `COc1ccc(CN2CC[C@H]3C=CC[C@@H](C(=O)Nc4ccc(Cl)cc4Cl)[C@H]3C2=O)cc1OC` (racemic) [compound 8952], for which the “KOR agonist (average percent efficacy relative to cognate agonist)” value in experiment [3] is given as −2.6%. Further, the Ki in experiment [2] (setting [6]) worked out at 5660 nM.
For the compound `CCCCN1CC[C@H]2C=CC[C@@H](C(=O)Nc3ccc(Cl)c(C(F)(F)F)c3)[C@H]2C1=O` (racemic) [compound 8956], the “KOR agonist (average percent efficacy relative to cognate agonist)” value in experiment [3] was 118.7%. For the same compound, the Ki stood at 190 nM in experiment [1] (setting [5]) and 2220 nM in experiment [2] (setting [6]).
For `O=C(Nc1ccc(Cl)c(C(F)(F)F)c1)C1CCCC2CCN(Cc3ccccc3)C(=O)C21` (racemic) [compound 11478], the Ki was determined as 51 nM in experiment [1] (setting [5]) and 1750 nM in experiment [2] (setting [6]).
On the same counts, the results for `O=C(Nc1cc(C(F)(F)F)ccc1Cl)C1CC=CC2CCN(CCc3ccccc3)C(=O)C21` (racemic) [compound 11849] are 1820 nM and 2410 nM.
In the same order, the values of `O=C(NCc1ccc(Cl)c(C(F)(F)F)c1)[C@@H]1CC=C[C@@H]2CCN(Cc3ccccc3)C(=O)[C@@H]21` (racemic) [compound 11868] are 455 nM and 2160 nM.
Take `Cc1cc(NC(=O)[C@@H]2CC=C[C@@H]3CCN(Cc4ccccc4)C(=O)[C@@H]32)ccc1Cl` (racemic) [compound 11872]: in experiment [3] ([35S]GTPγS data-fit top relative to reference agonist U69593), the “Emax values relative to U69593” value worked out at 123%. For the same compound, the Ki worked out at 86 nM in experiment [1] (setting [5]) and 2180 nM in experiment [2] (setting [6]).
Consider `O=C(NCc1ccc(Cl)c(C(F)(F)F)c1)[C@@H]1CC=C[C@@H]2CCN(CCc3ccccc3)C(=O)[C@@H]21` (racemic) [compound 11874], for which the Ki stood at 319 nM in experiment [1] (setting [5]) and 1240 nM in experiment [2] (setting [6]).
On the same counts, the results for `O=C(Nc1ccc(Br)c(C(F)(F)F)c1)[C@@H]1CC=C[C@@H]2CCN(CCc3ccccc3)C(=O)[C@@H]21` (racemic) [compound 11875] are 2280 nM and 1180 nM.
In the same order, the values of `Cc1cc(NC(=O)[C@@H]2CC=C[C@@H]3CCN(CCc4ccccc4)C(=O)[C@@H]32)ccc1Cl` (racemic) [compound 11878] are 4120 nM and 1670 nM.
With `O=C(Nc1ccc(Br)c(C(F)(F)F)c1)[C@H]1CC=C[C@H]2CCN(Cc3ccccc3)C(=O)[C@@H]12` [11869*], the Emax in experiment [3] is 68%. Moreover, the inhibition constant Ki in experiment [1] (setting [5]) amounted to 16.5 nM; in experiment [2] (setting [6]) it was 648 nM.
`O=C(Nc1ccc(Cl)c(C(F)(F)F)c1)[C@@H]1CC=C[C@@H]2CCN(Cc3ccccc3)C(=O)[C@@H]21` [compound 11789]: the Ki in experiment [1] worked out at 132 nM; in experiment [2], 3480 nM.
Take `O=C(Nc1ccc(Cl)c(C(F)(F)F)c1)[C@H]1CC=C[C@H]2CCN(Cc3ccccc3)C(=O)[C@@H]12` [compound 11790]: the Emax in experiment [3] was determined as 78%. Further, the Ki was found to be 3.2 nM in experiment [1] and 208 nM in experiment [2].
On to `O=C(Nc1ccccc1)[C@H]1CC=C[C@H]2CCN(Cc3ccccc3)C(=O)[C@@H]12` [compound 11794], for which the Ki in experiment [1] (setting [5]) was found to be 137 nM; in experiment [2] (setting [6]), 1660 nM.
In the case of `O=C(Nc1ccc(Cl)c(C(F)(F)F)c1)[C@@H]1CC=C[C@H]2CCN(Cc3ccccc3)C(=O)[C@H]21` [compound 11795], the Ki in experiment [1] is 158 nM; in experiment [2] (setting [6]) it was 5420 nM.

What is called Ki is a dissociation constant, usually derived from enzyme kinetics or from competition with a known ligand. By Emax is commonly meant the maximal effect, on the per cent scale that the assay sets.
